# From patent US12188095B2, “Methods and compositions for identifying and treating patients with small cell lung cancer” (UNIVERSITY OF UTAH RESEARCH FOUNDATION, priority 2016, dated 2025)
# Experiments:
# human cell lines = assay: Human cell line viability with BCL2 inhibitors (CellTiter-Glo, GI50); format: cell-based; conditions: 96 h
# Description: Human cell lines were seeded in triplicate in white, flat-bottomed 96-well plates at 2000 cells/well. […] Drug was added again at 48 h to maintain the desired final concentration. After 96 h of treatment, cell viability was measured using Cell Titer Glo (CTG) assay (Promega, Madison, Wis., USA) and plates were read on a luminometer. Normalized, transformed dose response curves were generated and analyzed using GraphPad Prism (GraphPad, La Jolla, Calif., USA) to determine GI50 for each compound (see, FIG. 13). Error bars represent mean+/−SEM.
# AURKA = assay: Immunoblot of Aurora kinase inhibition in treated cells; format: cell-based; conditions: concentrations in the range of the GI50-value, mouse and human cells
# human SCLC cell lines = assay: Drug screening of human SCLC cell lines (CellTiter-Glo viability, GI50); format: cell-based; conditions: 17 human SCLC cell lines, 72-96 hr; adjusted p: etoposide 0.038, alisertib 0.001, barasertib 0.022
# Description: Drug screening. Human SCLC cell lines were cultured in RPMI or HITES as described before (Sos et al., 2012). […] After 96 hr, cell viability was analyzed using CTG reagent. […] For PF-670462 (Apexbio), MS436 (MedChem Express), barasertib/1152-HQPA (Apexbio), alisertib/MLN8237 (Apexbio) and milciclib/PHA-848125 (MedChem Express), all dissolved in DMSO, indicated cell lines were screened using the same protocol in 384-well format with 500 (adherent) or 5000 (suspension) cells per well (25 ml) and treated using a robotic system (CyBio CyBi well vario). Upon treatment, cells were incubated for 72 hr prior to addition of CTG reagent. Each cell line and concentration was analyzed in quadruplicate per experiment with n=3 independent trials.
# MYC = MYC protein level and stability (immunoblot, cycloheximide); format: cell-based; conditions: mouse or human cells, also after cycloheximide block of protein synthesis
# Description: Alternatively, cell lysates were prepared using RIPA buffer supplemented with protease inhibitors (Roche complete mini) and benzonase (Millipore)), separated on 4-20% Tris-glycine SDS-PAGE gels (Invitrogen), and transferred to PVDF-FL membrane (Millipore). Membranes were blocked using Li-Cor blocking buffer (1:10 in TBS) and incubated with primary antibodies in blocking solution with 0.2% Tween 20 overnight at 4° C. Prior to detection with a near-IR imaging system (Li-Cor Odyssey), membranes were washed in TBS-T, incubated with secondary antibodies and washed in TBS-T. For total Aurora A in FIG. 6H, the chemiluminescent signal (ECL, GE Healthcare) was captured with a CCD-camera (BioRad Geldoc XR+). […]
# Protein stability cycloheximide (CHX) experiments. […] Protein lysates were prepared using RIPA buffer as described above, separated on 4-20% Tris-glycine gels (Invitrogen), and analyzed by immunoblot against Myc and Hsp90. Signals were quantified using Li-Cor Image Studio (Li-Cor Biosciences) and ratios of Myc/Hsp90 normalized to the 0 min time point. […]
# relapsed SCLC = conditions: monotherapy, relapsed SCLC (Melichar et al., 2015); cited from earlier work
# AURKB = target: T1, AURKB (Homo sapiens, UniProt Q96GD4); assay: Immunoblot of Aurora kinase inhibition in treated cells; format: cell-based; conditions: concentrations in the range of the GI50-value, mouse and human cells
# T1 construct: Whole cell lysates analyzed by immunoblot for indicated antibodies; endogenous in cells; host or cells: GLC2 (human SCLC)
# T1 sequence (Q96GD4 whole entry): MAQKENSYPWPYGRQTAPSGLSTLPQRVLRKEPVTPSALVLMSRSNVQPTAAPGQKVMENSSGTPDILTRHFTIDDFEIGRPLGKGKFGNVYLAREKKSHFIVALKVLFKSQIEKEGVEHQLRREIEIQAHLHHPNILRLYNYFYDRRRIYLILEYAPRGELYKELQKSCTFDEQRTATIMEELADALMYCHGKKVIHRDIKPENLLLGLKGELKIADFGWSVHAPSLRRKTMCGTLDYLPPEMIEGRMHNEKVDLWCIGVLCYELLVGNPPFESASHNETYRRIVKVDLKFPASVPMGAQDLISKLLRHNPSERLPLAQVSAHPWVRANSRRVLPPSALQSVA
# Description: Immunoblot. For primary lung tumor lysates, mouse lung tumors were micro-dissected under sterile conditions, flash frozen and stored at −80° C. until use. Approximately 20-40 mg tumor pieces were disrupted and lysed to homogeneity with disposable pestles and cordless motor (VWR) in 200 μl RIPA buffer supplemented with protease inhibitors (Roche complete mini) and sodium orthovanadate (Sigma). Lysates are centrifuged at 13000 rpm for 15 minutes and supernatants are transferred to new tubes. For cell line lysates, total protein lysates are prepared as previously described, separated via SDS-PAGE and transferred to a PVDF membrane (Oliver et al., 2011). Membranes were blocked for 1 hr in 5% milk or 5% BSA, followed by overnight incubation with primary antibodies at 4° C. Membranes were washed for 6×5 min at room temperature in TBS-T. Mouse and rabbit HRP-conjugated secondary antibodies (Jackson ImmunoResearch, 1:10,000) were incubated for 1 hr at room temperature followed by washing 6×5 min at room temperature in TBS-T. For detection, membranes were exposed to WesternBright HRP Quantum substrate (Advansta) and detected on Hyblot CL film (Denville Scientific Inc). […]
# RPM tumors = assay: IHC and histology of tumors of treated RPM mice; format: in vivo, mouse
# Description: Sections were dewaxed, rehydrated and subjected to high temperature antigen retrieval, 20 min boiling in a pressure cooker in 0.01 M citrate buffer, pH 6.0. Slides were blocked in 3% H202 for 15 min, blocked in 5% goat serum in PBS/0.1% Tween-20 (PBS-T) for 1 hr, and stained overnight in blocking buffer with primary antibodies. A HRP conjugated secondary antibody (Vector Laboratories) was used at 1:200 dilution in PBS-T, incubated for 45 min at room temperature, followed by DAB staining (Vector Laboratories). All staining was performed with Sequenza coverplate technology. Mouse on Mouse (M.O.M.) Basic Kit (Vector Laboratories) was used for staining with BrdU and Ki67 mouse primary antibodies. Tris buffered saline with Tween-20 (TBS-T) was used instead of PBS-T for phospho-protein antibodies. […]
# For automated image analysis, IHC-stained slides were digitally scanned with the Aperio AT2 Scanscope and whole slides images were quantitatively analyzed with image analysis nuclear algorithm using Halo digital imaging analysis software (Indica Labs, NM, USA). […] Results are expressed as percent positive cells per tumor area.
# [1] = system: RPM mice with Myc-driven SCLC; assay: In vivo drug study in RPM mice (microCT tumor volume, survival); set-up: species or system mouse
# Description: Alisertib (MLN8237, ApexBio, dissolved in 10% 2-hydroxy-beta-cyclo-dextrin and 1% sodium bicarbonate) was given 20 mg/kg twice daily by oral gavage on a schedule of 5 days on, 2 days off. […] For survival studies, endpoints include but are not limited to: difficulty breathing, eating or moving, obvious signs of pain or weight loss greater than 20% of initial body weight.
# Mice were scanned for 34 sec under isoflurane anesthesia using a small animal Quantum FX microCT (PerkinElmer) at 45 μm resolution, 90 kV with 160 μA current. Images were acquired using PerkinElmer Quantum FX software and processed with Analyze 11.0 (AnalyzeDirect).
# Scans were calibrated for Hounsfield Units (HU) by determining the mean value of “Bed” and “Air” for representative scans through the region of interest (ROI) tool and matching those values to their known HU (40 HU and −1000 HU, respectively) using the “Image Algebra” tool. Every image was then applied a 3×3×3 Median Filter from the “Spatial Filters” window. Thresholds of “Air” vs. “Dense Tissue” were established using the ROI and histogram tools. Every image was processed and normalized using the “Image Algebra” tool, followed by a 3×3×3 Median Filter from the “Spatial Filters” window. For Total Tumor Burden Analyses, the object map was created using the previously established thresholds; adjustments were made manually using “Spline Edit”, “Draw” and “Nudge Edit” tools. The object map was then morphed using the “Morphology” tool. The object map was made binary by using the threshold morphing tool. Then, the map was dilated 3 times using 5×5×5 Jack-shaped structuring elements. The holes were then filled on every 2D-orientation. The map was finally brought back to its original size using the “Erode” tool 3 times using 5×5×5 Jack-shaped structuring elements. The volumetric analyses were then performed in the ROI window using the pre-established thresholds and non-airspace was calculated using the formula: Non-airspace=1−(VolAir/ROIVol). For individual tumors, the 3D segmentation was performed semiautomatically using Analyze 11.0 “object extract tool”. Adjustments were made manually using the “Spline Edit”, “Draw” and “Nudge Edit” tools. The tumor segmentation was then processed using the semi-automatic tools “fill holes” and the object was propagated and smoothed in the axial, transverse and coronal planes. Volume quantification was obtained using the ROI tool as for total tumor burden analyses.
# Total tumor volume was quantified relative to total air volume as a comprehensive measurement of treatment impact. […] The percent change in total tumor volume was analyzed at Day 19 (or at the time of death, if sooner) compared to Day 0 in each treatment group by waterfall plot.
# [2] = system: RPM mouse SCLC cell lines; assay: Mouse cell viability and proliferation assays (CellTiter-Glo, GI50); format: cell-based; conditions: 96 hrs; for GI50: RPM cell lines (n=7)
# Description: Mouse cell viability and proliferation assays. Cells were seeded in triplicate (1500/well) in white, flat-bottom 96-well plates. […] After 96 hrs of treatment, cell viability was measured using Cell Titer Glo (CTG, Promega, Madison, Wis., USA) on a luminometer. Normalized, transformed dose response curves were generated and analyzed using GraphPad Prism (GraphPad, La Jolla, Calif., USA) to determine GI50 for each compound. […] Confluence percentage at each time point was calculated by the Essen IncuCyte software.
# [3] = system: human SCLC cell lines infected with Bcl-2 vector; assay: Viability of human SCLC cell lines overexpressing BCL2; format: cell-based; conditions: human SCLC cell lines with pMSCV PIG Bcl-2 vs empty vector
# Description: HEK293T cells were transfected with pMSCV PIG (Addgene Plasmid #21654) empty vector, or pMSCV PIG with an insert that encodes the human Bcl-2 gene in addition to pCMV-VSVG and pCMV delta R8.2 plasmids using TransIT-LT1 (Minis). Virus was collected at 48 and 72 hr post-transfection. Human SCLC cell lines were infected with viral supernatant. Infected cells were selected with puromycin for several days until all uninfected cells were killed by puromycin. […] Cell viability assays were carried out as previously described, with the addition of Alisertib+/−0.5 uM ABT-199 (ApexBio) using the infected human cell lines described above. Cell viability assays were carried out as previously described, with the addition of Alisertib+/−0.5 uM ABT-199 (ApexBio) using the infected human cell lines described above.
# [4] = system: MYC-high vs. MYC-low human SCLC cell lines; conditions: 68 human SCLC cell lines binned by MYC expression, data of Polley et al., 2016; cited from earlier work
# RPM cells = assay: Cell cycle analysis (PI staining, flow cytometry); format: cell-based, mouse; conditions: 48 hr
# Description: Cell cycle analysis. Cells were treated with indicated concentrations of alisertib (MLN8237, Selleckchem, Houston, Tex.) in 6-well plates and harvested with trypsin, washed twice in PBS, and 1×10^6 cells were fixed in ice-cold 70% ethanol overnight. Cells were washed 2× in PBS/1% BSA, treated with 100 μg/mL RNase for 10 min at 37° C., then stained with 25 μg/mL propidium iodide (PI) overnight at 4 C. Cells were analyzed on a BD FACScan flow cytometer and cell cycle analysis excluding cell doublets was performed using FlowJo software.
smiles,measurement,setting,value
CC1(C)CCC(CN2CCN(c3ccc(C(=O)NS(=O)(=O)c4ccc(NCC5CCOCC5)c([N+](=O)[O-])c4)c(Oc4cnc5[nH]ccc5c4)c3)CC2)=C(c2ccc(Cl)cc2)C1 [ABT-199],sensitivity (GI50) to BCL2 inhibition relative to MYC expression,human cell lines,MYC expression anti-correlates with BCL2 expression and sensitivity to BCL2 inhibition
CN(C)CC[C@H](CSc1ccccc1)Nc1ccc(S(=O)(=O)NC(=O)c2ccc(N3CCN(Cc4ccccc4-c4ccc(Cl)cc4)CC3)cc2)cc1[N+](=O)[O-] [ABT-737],sensitivity (GI50) to BCL2 inhibition relative to MYC expression,human cell lines,MYC expression anti-correlates with BCL2 expression and sensitivity to BCL2 inhibition
COc1cc(Nc2ncc3c(n2)-c2ccc(Cl)cc2C(c2c(F)cccc2OC)=NC3)ccc1C(=O)O [alisertib],inhibition of AURKA,AURKA,dose-dependent inhibition
same,drug response (GI50) of MYC-driven SCLCs versus those driven by MYCL or MYCN,human SCLC cell lines,significantly more responsive
same,MYC protein level,MYC,did not primarily lead to reduced MYC protein
same,patients exhibiting partial responses,relapsed SCLC,~20%
same,inhibition of AURKB,AURKB,dose-dependent inhibition
same,cells with polyploidy and aberrant mitoses,RPM tumors; alisertib 20 mg/kg twice daily,dramatic enrichment
same,NEUROD1+ cells by IHC,RPM tumors; compared to other treatment groups,significantly enriched
same,increase of median survival compared to untreated animals,[1]; Day 0 = start of treatment,10 days
same,mice that survived 30 days,[1]; PBS 0%,8%
same,tumor growth (total tumor volume by microCT),"[1]; three cycles, alisertib 20 mg/kg twice daily 5 days on 2 off, cisplatin 5 mg/kg + etoposide 10 mg/kg once weekly",modest delay in tumor growth
same,overall response (percent change in total tumor volume Day 0-19) compared to untreated animals,[1]; waterfall plot,did not impact overall response
same,sensitivity of RPM cells compared to adenocarcinoma cell lines and non-MYC-driven cells (GI50),"[2]; RPM vs RPP, RP, KP cell lines",particularly sensitive
same,Alisertib sensitivity on BCL2 overexpression,[3],BCL2 overexpression promotes Alisertib resistance
same,efficacy (IC50) in MYC-high versus MYC-low cell lines,[4],increased efficacy in MYC-high cell lines
same,subG1 cells,"RPM cells; RPM cells compared to KP, RPP and RP cells",greater increase in subG1 cells
same,G2/M phase cells,RPM cells; RPM cells,dose-dependent increase in G2/M phase cells
N.N.[Cl][Pt][Cl] [cisplatin],GI50,[2],high micromolar
COc1cc([C@@H]2c3cc4c(cc3[C@@H](O[C@@H]3O[C@@H]5CO[C@@H](C)O[C@H]5[C@H](O)[C@H]3O)[C@H]3COC(=O)[C@H]23)OCO4)cc(OC)c1O [etoposide],GI50,[2],nanomolar
